Laboratory results published in PubChem BioAssay (NCI).
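Tested at 5 concentrations; 48 h exposure; 96-well plates; endpoints linearly interpolated, else capped at highest concentration. TGI is the concentration that stops growth completely.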

Columns and labels:
Experiment in all cases: growth of human tumour cells (NCI), 48 h
KM12 colon = test system: KM12 colon
SNB-75 CNS = test system: SNB-75 CNS
SF-268 CNS = test system: SF-268 CNS
UO-31 renal = test system: UO-31 renal
M19-MEL melanoma = test system: M19-MEL melanoma
SF-295 CNS = test system: SF-295 CNS
LOX IMVI melanoma = test system: LOX IMVI melanoma
SNB-78 CNS = test system: SNB-78 CNS
DMS 114 small cell lung = test system: DMS 114 small cell lung
SW-620 colon = test system: SW-620 colon
HCT-15 colon = test system: HCT-15 colon
HOP-92 NSCLC = test system: HOP-92 NSCLC
NCI-H226 lung = test system: NCI-H226 lung
OVCAR-4 ovarian = test system: OVCAR-4 ovarian
SK-MEL-28 melanoma = test system: SK-MEL-28 melanoma
UACC-62 melanoma = test system: UACC-62 melanoma
UACC-257 melanoma = test system: UACC-257 melanoma
LXFL 529 NSCLC = test system: LXFL 529 NSCLC
SK-MEL-2 melanoma = test system: SK-MEL-2 melanoma
RPMI-8226 leukemia = test system: RPMI-8226 leukemia
MALME-3M melanoma = test system: MALME-3M melanoma
HL-60(TB) leukemia = test system: HL-60(TB) leukemia
NCI-H23 lung = test system: NCI-H23 lung
KM20L2 colon = test system: KM20L2 colon
MOLT-4 leukemia = test system: MOLT-4 leukemia
M14 melanoma = test system: M14 melanoma
DMS 273 small cell lung = test system: DMS 273 small cell lung
SNB-19 CNS = test system: SNB-19 CNS
A498 renal = test system: A498 renal
HOP-62 NSCLC = test system: HOP-62 NSCLC
CAKI-1 renal = test system: CAKI-1 renal
K-562 leukemia = test system: K-562 leukemia
OVCAR-5 ovarian = test system: OVCAR-5 ovarian
ACHN renal = test system: ACHN renal
A549 NSCLC = test system: A549 NSCLC
SF-539 CNS = test system: SF-539 CNS
OVCAR-8 ovarian = test system: OVCAR-8 ovarian
EKVX NSCLC = test system: EKVX NSCLC
DLD-1 colon = test system: DLD-1 colon
OVCAR-3 ovarian = test system: OVCAR-3 ovarian
HT29 colon = test system: HT29 colon
SK-MEL-5 melanoma = test system: SK-MEL-5 melanoma
SR leukemia = test system: SR leukemia
HOP-18 NSCLC = test system: HOP-18 NSCLC
COLO 205 colon = test system: COLO 205 colon
NCI-H522 lung = test system: NCI-H522 lung
XF 498 CNS = test system: XF 498 CNS
U251 CNS = test system: U251 CNS
786-0 renal = test system: 786-0 renal
SN12C renal = test system: SN12C renal
IGROV1 ovarian = test system: IGROV1 ovarian
RXF 393 renal = test system: RXF 393 renal
CCRF-CEM leukemia = test system: CCRF-CEM leukemia
NCI-H460 lung = test system: NCI-H460 lung
HCT-116 colon = test system: HCT-116 colon
TK-10 renal = test system: TK-10 renal
SK-OV-3 ovarian = test system: SK-OV-3 ovarian
HCC-2998 colon = test system: HCC-2998 colon

Measured: TGI

C[Si](C)(C)/C=C/CN1C(=O)CCC1O (stereo unspecified)
> 100 µM: KM12 colon | SNB-75 CNS | SF-268 CNS | UO-31 renal | M19-MEL melanoma | SF-295 CNS | LOX IMVI melanoma | SNB-78 CNS | DMS 114 small cell lung | SW-620 colon | HCT-15 colon | HOP-92 NSCLC | NCI-H226 lung | OVCAR-4 ovarian | SK-MEL-28 melanoma | UACC-62 melanoma | UACC-257 melanoma | LXFL 529 NSCLC | SK-MEL-2 melanoma | RPMI-8226 leukemia | MALME-3M melanoma | HL-60(TB) leukemia | NCI-H23 lung | KM20L2 colon | MOLT-4 leukemia | M14 melanoma | DMS 273 small cell lung | SNB-19 CNS | A498 renal | HOP-62 NSCLC | CAKI-1 renal | K-562 leukemia | OVCAR-5 ovarian | ACHN renal | A549 NSCLC | SF-539 CNS | OVCAR-8 ovarian | EKVX NSCLC | DLD-1 colon | OVCAR-3 ovarian | HT29 colon | SK-MEL-5 melanoma | SR leukemia | HOP-18 NSCLC | COLO 205 colon | NCI-H522 lung | XF 498 CNS | U251 CNS | 786-0 renal | SN12C renal | IGROV1 ovarian | RXF 393 renal | CCRF-CEM leukemia | NCI-H460 lung | HCT-116 colon | TK-10 renal | SK-OV-3 ovarian | HCC-2998 colon

CN(O)C(=O)Cc1ccccc1
> 100 µM: KM12 colon | SNB-75 CNS | SF-268 CNS | UO-31 renal | M19-MEL melanoma | SF-295 CNS | LOX IMVI melanoma | SNB-78 CNS | DMS 114 small cell lung | SW-620 colon | HOP-92 NSCLC | NCI-H226 lung | OVCAR-4 ovarian | SK-MEL-28 melanoma | UACC-62 melanoma | UACC-257 melanoma | LXFL 529 NSCLC | RPMI-8226 leukemia | MALME-3M melanoma | HL-60(TB) leukemia | NCI-H23 lung | KM20L2 colon | MOLT-4 leukemia | M14 melanoma | DMS 273 small cell lung | SNB-19 CNS | HOP-62 NSCLC | CAKI-1 renal | K-562 leukemia | OVCAR-5 ovarian | ACHN renal | A549 NSCLC | SF-539 CNS | OVCAR-8 ovarian | DLD-1 colon | OVCAR-3 ovarian | HT29 colon | SK-MEL-5 melanoma | SR leukemia | COLO 205 colon | NCI-H522 lung | XF 498 CNS | U251 CNS | 786-0 renal | SN12C renal | IGROV1 ovarian | RXF 393 renal | CCRF-CEM leukemia | NCI-H460 lung | HCT-116 colon | TK-10 renal | SK-OV-3 ovarian | HCC-2998 colon
